Biological target: T1, pp60c-Src (Homo sapiens, UniProt P12931)
T1 construct: made in house; elsewhere 3Y1 rat fibroblasts are transfected with pcSrc531RI (pcDNA3.1)
Assay: Competitive inhibition of enolase phosphorylation by Src kinase
Type: biochemical
Settings: 1 μM acid treated enolase; read-out: K50% competitive inhibition of enolase phosphorylation
Method: A library of peptides to be tested as antagonists of pp60 c-Src mutant tyrosine kinase are synthesized according to the procedure disclosed in U.S. Pat. No. 5,532,167 to Cantley, which is incorporated herein by way of reference. Accordingly a peptide Ala-Glu-Glu-Glu-Ile-Tyr-Gly-Glu-Phe-Glu-Ala-Lys-Lys-Lys-Lys is synthesized as an optimal substrate/antagonist for mutant Src tyrosine kinase. The kinetic studies are carried out as follows. Purified mutant kinase is immobilized on protein A beads and kinase reaction is performed in 20 μl of 50 mM Tris pH 7.0 buffer containing 50 mM NaCl, 10 mM MgCl2, 10 μM ATP 5 μCi [gamma-^32P]-ATP (3000 mCi/mmol, NEN) and various dilutions of the peptide. For the experiment measuring the competitive inhibition of c-Src activity by the Src motif-containing peptide, 1 μM (final concentration) acid treated enolase (trans-phosphorylation) is included. After 2.5 minutes incubation, the supernatants are spotted on phosphocellulose paper, washed four times with 75 mM phosphoric acid, and radioactivity counted in a scintillation counter. For phosphorylation of enolase, the reaction is stopped by adding SDS loading buffer and the proteins are resolved on 10% SDS-PAGE gels. The Km and Vmax are calculated using a standard computer software. The peptide is a good substrate for pp60c-Src, with Km of 2 μM and Vmax of 0.9 μM/mg/min. […]

T1 sequence (P12931 2-530): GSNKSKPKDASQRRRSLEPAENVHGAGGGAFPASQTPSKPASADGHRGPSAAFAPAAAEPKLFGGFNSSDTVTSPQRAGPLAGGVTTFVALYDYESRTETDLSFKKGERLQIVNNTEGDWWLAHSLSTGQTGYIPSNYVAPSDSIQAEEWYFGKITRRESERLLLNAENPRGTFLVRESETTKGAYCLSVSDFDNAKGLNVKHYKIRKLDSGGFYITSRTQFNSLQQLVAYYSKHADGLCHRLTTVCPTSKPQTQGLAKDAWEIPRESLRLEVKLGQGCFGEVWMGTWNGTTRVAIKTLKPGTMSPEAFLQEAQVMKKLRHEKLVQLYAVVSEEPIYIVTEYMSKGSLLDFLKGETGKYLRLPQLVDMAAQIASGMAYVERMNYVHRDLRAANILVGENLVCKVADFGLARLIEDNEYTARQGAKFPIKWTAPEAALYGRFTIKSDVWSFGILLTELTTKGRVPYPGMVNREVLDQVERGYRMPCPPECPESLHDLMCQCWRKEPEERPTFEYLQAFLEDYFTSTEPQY

- IC50: 5 µM
Compound: CC[C@H](C)[C@H](NC(=O)[C@H](CCC(=O)O)NC(=O)[C@H](CCC(=O)O)NC(=O)[C@H](CCC(=O)O)NC(=O)[C@H](C)N)C(=O)N[C@@H](Cc1ccc(O)cc1)C(=O)NCC(=O)N[C@@H](CCC(=O)O)C(=O)N[C@@H](Cc1ccccc1)C(=O)N[C@@H](CCC(=O)O)C(=O)N[C@@H](C)C(=O)N[C@@H](CCCCN)C(=O)N[C@@H](CCCCN)C(=O)N[C@@H](CCCCN)C(=O)N[C@@H](CCCCN)C(=O)O [Ala-Glu-Glu-Glu-Ile-Tyr-Gly-Glu-Phe-Glu-Ala-Lys-Lys-Lys-Lys]

— patent US6764833B1, “Mutated Src oncogene composition and methods” (University of South Florida, priority 1999, dated 2004)
